Data: the supplement of paper PMC10307832

Legend:
Test in all cases: relative viability (nuclei count vs DMSO), 5 days (fraction); higher = more cells survive
Cediranib + Alpelisib = compound: COc1cc2c(Oc3ccc4[nH]c(C)cc4c3F)ncnc2cc1OCCCN1CCCC1 [Cediranib] + Cc1nc(NC(=O)N2CCC[C@H]2C(N)=O)sc1-c1ccnc(C(C)(C)C(F)(F)F)c1 [Alpelisib] (partner 2 µM)
Outline: (§1)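 Relative viability was taken as the ratio of nuclei in treated wells to nuclei in vehicle wells. Lung cancer cell lines in 1536-well plates received compounds by pin tool one day after seeding, either one drug alone or a fixed anchor-drug dose plus five library-drug doses (not always all listed) in √10 steps. Nuclei were counted on 4× images after 5 days of treatment, and values are medians of duplicate plates.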

[1] = compound: O=C(C[C@H]1NCCC[C@@H]1O)Cn1cnc2cc(Br)c(Cl)cc2c1=O (racemic) [Halofuginone] + Nc1nc2[nH]cc(CCc3ccc(C(=O)N[C@@H](CCC(=O)O)C(=O)O)cc3)c2c(=O)[nH]1 [Pemetrexed] (partner 0.2 µM)
Outline: as §1

Decitabine + Bortezomib = compound: Nc1ncn([C@H]2C[C@H](O)[C@@H](CO)O2)c(=O)n1 [Decitabine] + CC(C)C[C@H](NC(=O)[C@H](Cc1ccccc1)NC(=O)c1cnccn1)B(O)O [Bortezomib] (partner 0.002 µM)
Outline: as §1

Cediranib + Olaparib = compound: COc1cc2c(Oc3ccc4[nH]c(C)cc4c3F)ncnc2cc1OCCCN1CCCC1 [Cediranib] + O=C(c1cc(Cc2n[nH]c(=O)c3ccccc23)ccc1F)N1CCN(C(=O)C2CC2)CC1 [Olaparib] (partner 8 µM)
Outline: as §1

Row | Cell Line | relative viability (Cediranib + Alpelisib; first compound 0.04 µM) | relative viability (Cediranib + Alpelisib; first compound 0.1265 µM) | relative viability (Cediranib + Alpelisib; first compound 0.4 µM) | relative viability (Cediranib + Alpelisib; first compound 1.265 µM) | relative viability (Cediranib + Alpelisib; first compound 4 µM) | relative viability ([1]; first compound 0.001 µM) | relative viability ([1]; first compound 0.003162 µM) | relative viability ([1]; first compound 0.01 µM) | relative viability ([1]; first compound 0.03162 µM) | relative viability ([1]; first compound 0.1 µM) | relative viability (Decitabine + Bortezomib; first compound 0.04 µM) | relative viability (Decitabine + Bortezomib; first compound 0.1265 µM) | relative viability (Decitabine + Bortezomib; first compound 0.4 µM) | relative viability (Decitabine + Bortezomib; first compound 1.265 µM) | relative viability (Decitabine + Bortezomib; first compound 4 µM) | relative viability (Cediranib + Olaparib; first compound 0.04 µM) | relative viability (Cediranib + Olaparib; first compound 0.1265 µM) | relative viability (Cediranib + Olaparib; first compound 0.4 µM) | relative viability (Cediranib + Olaparib; first compound 1.265 µM) | relative viability (Cediranib + Olaparib; first compound 4 µM)
1 | LC-2-ad | 0.994 | 0.97 | 0.809 | 0.86 | 0.635 | 0.273 | 0.305 | 0.251 | 0.246 | 0.269 | 0.799 | 0.779 | 0.459 | 0.304 | 0.329 | 0.737 | 0.689 | 0.664 | 0.732 | 0.839
2 | LCLC-97TM1 | 0.235 |  | 0.25 | 0.237 | 0.199 | 0.183 | 0.156 | 0.189 | 0.16 | 0.153 | 0.202 | 0.268 | 0.123 | 0.124 | 0.11 | 0.468 |  | 0.384 | 0.301 | 0.504
3 | LCLC-103H | 1.03 | 1.08 | 0.98 | 0.932 | 0.917 | 0.479 | 0.362 | 0.455 | 0.443 | 0.498 | 0.985 | 1.04 | 0.966 | 0.9 | 0.749 | 0.797 | 0.836 | 0.739 | 0.749 | 0.658
4 | LOU-NH91 | 0.702 | 0.952 | 0.695 | 0.672 | 0.615 | 0.405 | 0.391 | 0.425 | 0.4 | 0.403 | 0.412 | 0.471 | 0.436 | 0.512 | 0.523 | 0.972 | 0.936 | 0.88 | 0.908 | 0.86
5 | LU99A | 0.567 |  | 0.489 | 0.49 | 0.589 | 0.218 | 0.157 | 0.16 | 0.163 | 0.181 | 1.06 | 1.26 | 1.31 | 0.989 | 0.949 | 0.236 |  | 0.244 | 0.267 | 0.314
6 | LXF-289 | 1.08 | 0.971 | 0.995 | 1.05 | 1.04 | 0.913 | 0.972 | 0.849 | 0.864 | 0.788 | 0.775 | 0.714 | 0.503 | 0.347 | 0.324 | 1.09 |  | 1.03 | 1 | 1.15
7 | NCI-H23 | 0.625 |  | 0.667 | 0.7 | 0.734 | 0.637 | 0.582 | 0.494 | 0.521 | 0.495 | 0.571 | 0.493 | 0.307 | 0.216 | 0.233 | 0.373 | 0.326 | 0.277 | 0.323 | 0.342
8 | NCI-H322M | 0.687 | 0.84 | 0.655 | 0.723 | 0.685 | 0.633 | 0.63 | 0.554 | 0.586 | 0.398 | 1.18 | 1.06 | 0.716 | 0.699 | 0.479 | 0.857 | 0.757 | 0.618 | 0.783 | 0.762
9 | NCI-H441 | 0.629 | 0.69 |  | 0.638 | 0.781 | 0.28 | 0.263 | 0.205 | 0.261 | 0.246 | 0.228 | 0.26 | 0.231 | 0.198 | 0.198 | 0.564 | 0.605 | 0.597 | 0.702 | 0.575
10 | NCI-H460 | 0.66 | 0.525 | 0.418 | 0.526 | 0.336 | 0.0584 | 0.0659 | 0.0638 | 0.0536 | 0.0574 | 0.909 | 0.991 | 0.811 | 0.35 | 0.272 | 0.53 | 0.411 | 0.403 | 0.424 | 0.362
11 | NCI-H520 | 1.05 |  | 0.838 | 0.795 | 0.846 | 0.726 | 0.662 | 0.784 | 0.611 | 0.246 | 0.628 | 0.595 | 0.374 | 0.297 | 0.221 | 0.365 | 0.353 | 0.355 | 0.298 | 0.3
12 | NCI-H596 | 0.489 | 0.481 | 0.478 | 0.509 | 0.577 | 0.514 | 0.506 | 0.468 | 0.511 | 0.451 | 1.02 | 0.873 | 0.845 | 0.847 | 0.855 | 0.798 | 0.8 | 0.721 | 0.99 | 0.731
13 | NCI-H647 | 1.35 | 1.3 | 1.02 | 0.876 | 1.21 | 0.191 | 0.171 | 0.172 | 0.155 | 0.0946 | 0.728 | 0.821 | 0.344 | 0.241 | 0.209 | 0.772 | 0.652 | 0.501 | 0.551 | 0.437
14 | NCI-H650 | 1.06 | 1.02 | 1.05 | 1.12 | 1.21 | 0.981 | 0.954 | 0.946 | 0.825 | 0.696 | 0.509 | 0.534 | 0.227 | 0.294 | 0.223 | 0.331 | 0.282 | 0.423 | 0.405 | 0.583
15 | NCI-H661 | 0.633 | 1.03 | 0.631 | 0.522 | 0.588 | 0.927 | 0.896 | 0.868 | 0.768 | 0.642 | 0.688 | 0.61 | 0.459 | 0.339 | 0.332 | 0.763 | 0.785 | 0.713 | 0.703 | 0.817
16 | NCI-H838 | 1.06 | 0.997 | 0.97 | 0.962 | 1.13 | 0.266 | 0.256 | 0.249 | 0.189 | 0.128 | 0.528 | 0.381 | 0.293 | 0.296 | 0.243 | 0.786 | 0.764 | 0.734 | 0.722 | 0.756
